The values below are quoted from earlier work in patent US10413512B2, “Nicotine-containing granulate” (priority 2008, dated 2019).

For series [1] the following is noted: oral administration.
For series [2] the following is noted: in vivo.
For series [3] the following is noted: base form.

With `CN1CCC[C@H]1c1cccnc1` [Nicotine, (S)-3-(1-Methyl-2-pyrrolidinyl)pyridine], the oral bioavailability result in series [1] is on record as “about 30%”. Further, the “half life in the body” value in series [2] is given as “around two”. The miscibility with water entry in series [3] is given as “miscible with water”.
